Assay [1] concerns the target T1, human TRPA1 (Homo sapiens (Human), UniProt O75762). Briefly: Inhibitory activity on human TRPA1 by conventional patch clamp assay. The settings on record: HEK293 human TRPA1, 100 μM cinnamaldehyde. In kind it is cell-based. An excerpt: 2. Inhibitory Activity on Human TRPA1 by Conventional Patch Clamp Assay
In order to compare the influences of different measuring methods on the inhibitory activity of compounds, a conventional patch clamp method was used to further measure the inhibitory activity of compounds 1, 11, 31, 50, and 78 on TRPA1. The principle and procedures of the conventional patch clamp assay could be found in the literature report of Chen et al [Chen et al. Pain 2011, 152(5):1165-72].
Evaluation of TRPA1 inhibitory activity of compounds was conducted using the HEK293 recombinant cell strain (Creative Biogene, NY) stably expressing human TRPA1. Cells were cultured in a DMEM/F12 (3:1, Thermo Fisher Scientific) medium (containing 5% calf serum, 2 mM glutamine and 20 mM HEPES) in an incubator at 37° C. and air humidity containing 5% CO2.
During the experiment, the adherent cells were placed in a recording room under the inverted microscope. All experiments were performed at room temperature. Each cell itself was used as a control thereof.
Test compounds at a final concentration were all prepared on the testing day and then dissolved in the extracellular fluid. The extracellular fluid was (mM): NaCl, 137; KCl, 4; CaCl2, 1.8; MgCl2, 1; HEPES, 10; glucose 10; pH 7.4 (NaOH titration). All the solutions of the test compounds and control compounds contained 0.3% DMSO.
The compounds were all perfused with a perfusion system by virtue of their own gravity. At least two cells were tested for each concentration of the compound. After the current became stable, the variation in magnitude of the current before and after the compound was used to calculate the blocking effect of the compound. 100 μM cinnamaldehyde was used as the positive control.
The cells were transferred to the perfusion tank and perfused with extracellular fluid. The intracellular fluid was: 130 mM K-aspartate; 5 mM MgCl2; 5 mM EGTA; 10 mM
HEPES; pH 7.2 (KOH titration). The intracellular fluid was stored in a small amount in a −80 degree refrigerator in batches, and thawed on the day of the experiment. The electrode was pulled with PC-10 (Narishige, Japan). Whole-cell patch clamp recording was adopted and noise was filtered at one-fifth of the sampling frequency.
The cells were clamped at 20 mV, and then depolarized to 80 mV with a square wave of 500 milliseconds to obtain the TRPA1 current (see FIG. 1).
This procedure was repeated every 3 seconds. Cells were patched in a normal extracellular fluid, current A was obtained via voltage procedure testing, and then perfusion was conducted with an extracellular fluid added with 100 μM cinnamaldehyde to activate TRPA1 current to obtain current B. After the current stabilized, elution was conducted with normal extracellular fluid and perfusion was conducted with an extracellular fluid added with 100 μM cinnamaldehyde and a compound at various concentrations to obtain current C. Finally, blocking rate of the compound was obtained according to […], see FIG. 2.
Data collection and analysis was conducted using pCLAMP 10 (Molecular Devices, Union City, CA). Current stabilization meant that the variation in the current with time was within a limited range. The magnitude of the current after stabilization was used to reflect the effect of the compound in this process.

Assay [2] addresses T1, human TRPA1. The assay is described as follows: FLIPR assay of inhibitory activity on human TRPA1 (calcium ion flux fluorescence). In kind it is cell-based. To be noted: HEK293 cells stably expressing human TRPA1. The protocol:
1. FLIPR Assay of Inhibitory Activity on Human TRPA1
A calcium ion flux fluorescence method (FLIPR assay) was adopted to measure the inhibitory activity of compounds on human TRPA1 channel. The literature reports of Lee and Chen et al. may be referred to for the method [Lee et al. Br J Pharmacol 2008, 153 (8): 1739-1749] [Chen et al. Pain 2011, 152(5):1165-72].
A HEK293 recombinant cell strain stably expressing human TRPA1 (Creative Biogene, NY) was cultured in DMEM (Thermo Fisher Scientific, Shanghai) medium (containing 10% calf serum, 5 μg/ml Blasticidin and 400 ug/ml G418). The incubator was under a condition of 37° C. and air humidity with 5% CO2.
TRPA1 cells were seeded in a 96-well analysis plate at a density of 75,000 cells per well (100 ul/well), and cultured overnight in an incubator at 37° C. and 5% CO2. On the second day, incubation was continued overnight under the same condition to induce the expression of TRPA1 after the culture medium in each well was poured out and a fresh supplement with the same culture medium containing 0.1 μg/ml Tetracycline was added. The further next day, the culture medium was pour out, a DMEM culture solution (also containing 2.5 mM Probenicid) containing 5 μM Fluo-4 AM (Molecular Probes) was added to each well, and incubation was conducted at 37° C. for 1 hour.
The compound was dissolved in 100% DMSO to prepare a 30 mM stock solution which was stored at −20° C. On the day of use, the compound stock solution was thawed at room temperature. Each compound was subjected to 1:5 serial dilution using DMSO medium at a starting concentration of 30 μM with 9 concentration points on a 96-well plate. Each compound was diluted in duplicate for testing. Ruthenium Red was used as the positive control compound and the same dilution was carried out at a starting concentration of 3 μM.
The cell analysis plate was placed in an FLIPR instrument […], and the compound in the compound plate was added to the corresponding hole on the cell analysis plate (First addition) via an automatic program, and the calcium ion fluorescence signal was recorded to determine whether the compound had agonistic activity. After 10 minutes, CaCl2 (Second addition) was added a final concentration of 3 mM to each well to stimulate intracellular calcium flux signals. Ca^++-dependent fluorescence signal was monitored continuously at 538 nm wavelength to analyze the inhibitory activity of the compounds.
The data was collected and analyzed using a FLIPR program. The fluorescence peak value was used to evaluate the inhibitory (or agonistic) activity of the compounds at each concentration. EXCEL and PRISM programs were used to calculate the IC50 value of the compounds.

For the next assay, the system named is mouse asthma model. The settings on record: cited from earlier work.
A further assay deals with mouse model of COPD. The settings on record: pretreatment of mice, cigarette smoke; cited from earlier work.
The test system of the next assay is guinea pigs. To be noted: cough induced by acrolein, crotonaldehyde, cinnamaldehyde; cited from earlier work.
For a further assay, the system named is asthmatic rats. Briefly: Ovalbumin-induced asthma rat model (HE staining, lung tissue inflammation area, airway inflammation score). In kind it is in vivo, SD rats. To be noted: compared with the model group. An excerpt: 4. Effects of Compounds on Ovalbumin-Induced Asthma in Mouse and Rat Models
SPF-grade SD male rats (purchased from Zhejiang Academy of Medical Sciences, license number SCXK (Zhejiang) 2019-0002) with a body weight of 160-180 g; and SPF-grade female BABL/c mice (purchased from Zhejiang Weitong Lihua Experimental Animals Technology Co., Ltd., license number SCXK (Zhejiang) 2019-0001) with a body weight of 16-18 g were used. The above animals were raised by the Experimental Animal Center of Zhejiang Academy of Traditional Chinese Medicine.
Formulation of compound solution: compound was vortexed in a solvent system, dissolved by ultrasound, and prepared into a solution at a corresponding concentration, which was prepared just before use (the solvent system was composed of 5% Solutol HS 15, 5% DMSO and 90% physiological saline).
BABL/c mice or SD rats were randomly divided into: normal control group, model control group, dexamethasone group (0.72 mg/kg), and the respective test compound groups (one group for each dose), 10 mice in each group; 6 rats in each group.
Sensitization of rats: On Day 1 and Day 8, the model control group and the respective drug administration groups were intraperitoneally injected with 1 ml of 10% OVA sensitizing solution, and the normal group was intraperitoneally injected with an equal volume of normal saline.
Rat: from Day 15, the dexamethasone group and the respective test compound groups were intraperitoneally injected, 20 minutes before challenge, with the corresponding drugs with an injection volume of 0.3 ml/100 g; the model control group was intraperitoneally injected, 20 minutes before challenge, with an equal volume of solvent system; and the normal control group was not treated. Administration was conducted for 7 consecutive days. […]
The rat was anesthetized with 10% urethane at 1.3 ml/100 g volume, and the left lung tissue was taken and fixed in 4% neutral formaldehyde, paraffin-embedded according to routine operation, sectioned for HE staining. […] NIS-Elements D 3.2 software was used to manually integrate and measure the total area of lung tissue sections and the inflammation area under all fields of view, the total areas under each field of view were accumulated, and the percentage of the cumulative area of inflammation in the total area was calculated, wherein the percentage of inflammation area=cumulative area of inflammation/total area×100%.
All data were expressed as mean±standard deviation (x±s), and the data were processed by SPSS 20.0 statistical software. […]

T1 sequence (O75762 whole entry): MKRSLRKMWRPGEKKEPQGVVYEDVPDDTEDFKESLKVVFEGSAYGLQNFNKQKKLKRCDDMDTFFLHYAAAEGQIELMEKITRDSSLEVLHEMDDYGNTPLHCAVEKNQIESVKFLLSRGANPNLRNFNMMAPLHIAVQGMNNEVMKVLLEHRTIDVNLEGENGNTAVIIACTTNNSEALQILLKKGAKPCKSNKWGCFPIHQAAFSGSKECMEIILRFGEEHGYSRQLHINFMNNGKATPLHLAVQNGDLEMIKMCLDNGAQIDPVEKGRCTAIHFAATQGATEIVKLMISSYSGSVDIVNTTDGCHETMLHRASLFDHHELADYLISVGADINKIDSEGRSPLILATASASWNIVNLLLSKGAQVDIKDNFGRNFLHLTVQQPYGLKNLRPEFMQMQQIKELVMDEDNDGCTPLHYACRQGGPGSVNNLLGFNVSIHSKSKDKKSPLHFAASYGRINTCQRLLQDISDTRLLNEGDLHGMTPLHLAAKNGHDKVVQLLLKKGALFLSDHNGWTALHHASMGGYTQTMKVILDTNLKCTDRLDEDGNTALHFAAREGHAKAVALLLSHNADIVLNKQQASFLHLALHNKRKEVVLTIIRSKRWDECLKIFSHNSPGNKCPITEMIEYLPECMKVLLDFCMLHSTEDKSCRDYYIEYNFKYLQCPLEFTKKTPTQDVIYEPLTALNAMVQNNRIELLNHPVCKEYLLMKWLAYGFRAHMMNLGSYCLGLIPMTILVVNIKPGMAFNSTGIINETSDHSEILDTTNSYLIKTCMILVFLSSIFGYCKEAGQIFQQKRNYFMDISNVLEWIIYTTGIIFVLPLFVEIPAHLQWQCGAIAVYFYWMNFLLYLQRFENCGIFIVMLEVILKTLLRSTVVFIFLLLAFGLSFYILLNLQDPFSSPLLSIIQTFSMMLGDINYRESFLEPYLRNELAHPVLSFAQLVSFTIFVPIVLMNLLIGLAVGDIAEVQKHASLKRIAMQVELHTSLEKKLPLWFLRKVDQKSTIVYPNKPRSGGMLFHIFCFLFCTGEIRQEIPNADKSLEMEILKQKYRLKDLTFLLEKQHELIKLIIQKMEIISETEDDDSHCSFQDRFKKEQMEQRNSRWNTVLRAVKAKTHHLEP

As a reminder, the IC50 is the concentration needed to halve the response being measured. Consider `N#Cc1ccc(NC2(C(=O)N3CCN(c4cccc(C(F)(F)F)n4)CC3)CCCC2)cc1` [Compound 11, 4-((1-(4-(6-(trifluoromethyl)pyridin-2-yl)piperazine-1-carbonyl)cyclopentyl)amino)benz onitrile], for which the figures for the IC50 at human TRPA1 [1] and on human TRPA1 [2] were 35 nM and 19 nM, respectively.
In the same order, the values of `N#Cc1ccc(OC2(C(=O)N3CCN(c4nccc(C(F)(F)F)n4)CC3)CCCC2)cc1` [Compound 50, 4-((1-(4-(4-(trifluoromethyl)pyrimidin-2-yl)piperazine-1-carbonyl)cyclopentyl)oxy)benz onitrile] are 65 nM and 28 nM.
`Cc1cccc(N2CCN(C(=O)C3Cc4cc(C#N)ccc4O3)CC2)n1` (stereo not drawn) [Compound 75]: the half-inhibitory concentration (IC50) on human TRPA1 [2] came out at 285 nM.
For `CC(C)(C)N1CCN(C(=O)C2Cc3cc(C#N)ccc3N2)CC1` (stereo not drawn) [Compound 77, 2-(4-(tert-butyl)piperazine-1-carbonyl)-5-cyanoindoline], the IC50 at human TRPA1 [2] is 91 nM.
On to `CC(C)(C)C1CCN(C(=O)C2Cc3cc(C#N)ccc3N2)CC1` (stereo not drawn) [Compound 78, 2-(4-(tert-butyl)piperidine-1-carbonyl)-5-cyanoindoline], for which the IC50 at human TRPA1 [1] stood at 83 nM; on human TRPA1 [2], 53 nM.
With `CC(C)(C)C1CCN(C(=O)C2Cc3cc(C#N)ccc3O2)CC1` (stereo not drawn) [Compound 79, 2-(4-(tert-butyl)piperidine-1-carbonyl)-2,3-2H-5-cyanoben-zofuran], at human TRPA1 [2], the IC50 was found to be 82 nM.
With `CC(C)(C)N1CCN(C(=O)C2Cc3cc(C#N)ccc3O2)CC1` (stereo not drawn) [Compound 80, 2-(4-(tert-butyl)piperazine-1-carbonyl)-2,3-2H-5-cyano-benzofuran], the IC50 on human TRPA1 [2] was found to be 68 nM.
Consider `Cn1c(=O)c2c(CC(=O)Nc3nc(-c4ccc(F)c(C(F)(F)F)c4F)cs3)csc2n(C)c1=O` [GRC17536], for which, in the assay on mouse asthma model, the acidophilic leukocytes result was “reduce”; the “mucus secretion and airway hyperreactivity” value is “inhibit”.
With `CC(C)c1ccc(NC(=O)Cn2cnc3c2c(=O)n(C)c(=O)n3C)cc1` [HC-030031], the “plasma protein extravasation induced by CS” value with mouse model of COPD is listed as “protective effect”. In addition, the cough response entry with guinea pigs is given as “significantly attenuate”.
As to `C[C@@H]1C[C@H]2[C@@H]3CCC4=CC(=O)C=C[C@]4(C)[C@@]3(F)[C@@H](O)C[C@]2(C)[C@@]1(O)C(=O)CO` [dexamethasone, reference compound], in the assay with asthmatic rats, the “lung tissue inflammation and inflammatory cell infiltration around the airway (HE x40)” value is recorded as “significant improvement”.

Values taken from patent US12391660B2, “Heteroaromatic acetamide derivative, and preparation and use thereof” (Hangzhou Westan Pharmaceutical Technology Co., Ltd, priority 2019, dated 2025).
